Drawing on patent US8927562B2, “Fused tricyclic inhibitors of mammalian target of rapamycin” (Merck Sharp & Dohme Corp., priority 2010, dated 2015), this text covers IC50 for 15 compounds.

Some results are limits rather than exact numbers.

This experiment concerns the target mTOR enzyme (Homo sapiens, UniProt P42345). Description: mTOR Kinase Assay. Format: biochemical. Conditions: 5 μM ATP, 0.1 μM GSTS6K substrate. The procedure:
The mTOR assay buffer contains 10 mM hepes (pH 7.4), 50 mM NaCl, 100 μg/ml BSA, 50 mM B-glycerophosphate, 10 mM MnCl2 and 0.5 mM DTT. 20 ng of mTOR enzyme is preincubated with the compound for 10 minutes. 5 μM ATP and 0.1 μM GSTS6K is added. The reaction is incubated for one hour at 30° C. Anti phospho p70S6K (about 1.7 ng/well) and anti GSTXL665 (1:1 Ratio with the substrate GSTS6K) are added after incubating. The plates are read at least 2 hours after adding the anti phospho p70S6K and the anti GSTXL665.
Dose-response curves were plotted from inhibition data generated, each in duplicate, from 8 point serial dilutions of inhibitory compounds. Concentration of compound was plotted against % kinase activity, calculated by CPM of treated samples divided by CPM of untreated samples. To generate IC50 values, the dose-response curves were then fitted to a standard sigmoidal curve and IC50 values were derived by nonlinear regression analysis.
The IC50 is the concentration that inhibits the measured activity by half. Low values mean inhibition by little substance, high ones a need for much substance. Regarding `Cc1cn(C2CCN(C(=O)CO)CC2)c2nc3c(-c4cnn(-c5ccccc5)c4)cnn3c(N)c12` [Example 13], the half-maximal inhibitory concentration (IC50) was below 10 nM. In turn, `Cc1cn(C2CCN(C(=O)c3nnc[nH]3)CC2)c2nc3c(-c4cnn(-c5ccccc5)c4)cnn3c(N)c12` [Example 12] yielded an IC50 of 10 to 100 nM. `C[C@@H](O)C(=O)N1Cc2nc3c(-c4ccc(-c5ccccc5)nc4)cnn3c(N)c2C1` [Example 1, (R)-1-(8-amino-3-(6-phenylpyridin-3-yl)-5H-pyrazolo[1,5-a]pyrrolo[3,4-d]pyrimidin-6(7H)-yl)-2-hydroxypropan-1-one] came in with an IC50 of 10 to 100 nM. The compound `Cc1cn(C2CCN(C(=O)c3nnc[nH]3)CC2)c2nc3c(-c4ccc(-c5ccccc5)nc4)cnn3c(N)c12` [Example 6] returned an IC50 of 10 to 100 nM. Consider `Cc1cn(C2CCN(C(=O)CO)CC2)c2nc3c(-c4ccc(-c5ccn(C)n5)nc4)cnn3c(N)c12` [Example 11], for which the half-maximal inhibitory concentration (IC50) lay within 10 to 100 nM. With `Cc1cn(C2CCN(C(=O)c3nnc[nH]3)CC2)c2nc3c(-c4ccc(-c5ccn(C)n5)nc4)cnn3c(N)c12` [Example 10], the IC50 is below 10 nM. Turning to `Cc1cn(C2CCN(C(=O)c3nnc[nH]3)CC2)c2nc3c(-c4ccc(-c5ncc[nH]5)nc4)cnn3c(N)c12` [Example 14], the IC50 was below 10 nM.

In turn, `Cc1cn(C2CCN(C(=O)CO)CC2)c2nc3c(-c4cnc5ccc(F)cc5c4)cnn3c(N)c12` [Example 4, 1-(4-(8-amino-3-(6-fluoroquinolin-3-yl)-7-methyl-5H-pyrazolo[1,5-a]pyrrolo[2,3-d]pyrimidin-5-yl)piperidin-1-yl)-2-hydroxyethanone] gave an IC50 below 10 nM.

`Nc1c2c(nc3c(-c4ccc(-c5ccccc5)nc4)cnn13)C(NC1CCOCC1)CC2` (stereo not drawn) [Example 3, 3-(6-phenylpyridin-3-yl)-N5-(tetrahydro-2H-pyran-4-yl)-6,7-dihydro-5H-cyclopenta[d]pyrazolo[1,5-a]pyrimidine-5,8-diamine] came in with an IC50 above 100 nM. In turn, `Cc1cn(C2CCN(C(=O)c3nnc[nH]3)CC2)c2nc3c(-c4cnc5ccc(F)cc5c4)cnn3c(N)c12` [Example 5] registered an IC50 below 10 nM. Compound `Cc1cn(C2CCN(C(=O)c3cc(N)n[nH]3)CC2)c2nc3c(-c4ccc(-c5ccccc5)nc4)cnn3c(N)c12` [Example 8] gave an IC50 of 10 to 100 nM. In turn, `Cc1cn(C2CCN(C(=O)c3nnc(N)[nH]3)CC2)c2nc3c(-c4ccc(-c5ccccc5)nc4)cnn3c(N)c12` [Example 7] registered a half-inhibitory concentration (IC50) of 10 to 100 nM. `Cc1cn(C2CCN(C(=O)CO)CC2)c2nc3c(-c4ccc(-c5ncc[nH]5)nc4)cnn3c(N)c12` [Example 15] returned a half-maximal inhibitory concentration (IC50) below 10 nM. For `Nc1c2c(nc3c(-c4ccc(-c5ccccc5)nc4)cnn13)CS(=O)(=O)C2` [Example 2, 3-(6-phenylpyridin-3-yl)-5,7-dihydropyrazolo[1,5-a]6,6-dioxidothieno[3,4-d]pyrimidin-8-amine], the IC50 lay within 10 to 100 nM.

`Cc1cn(C2CCN(C(=O)CO)CC2)c2nc3c(-c4ccc(-c5ccccc5)nc4)cnn3c(N)c12` [Example 9]: the half-inhibitory concentration (IC50) is below 10 nM.
